From patent publication US5438117A, “Hexapeptides deriving from aglucoteicoplanin and a process for preparing them” (Gruppo Lepetit S.p.A., priority 1990, dated 1995)

Experiments:
[1] = system: Entero. faecalis ATCC 7080; experiment: In vitro MIC, microdilution method in broth; assay type: cell-based; conditions: inoculum 10^5 cfu/ml, 18-24 hours at 37° C.
Description: (§1) The antimicrobial activity, expressed as minimal inhibitory concentration (MIC), of the hexapeptide of formula (I), R=hydrogen, against selected strains of Gram-positive bacteria was determined in comparison with teicoplanin. The microdilution method in DIFCO TODDO-HEWITT broth (Streptococci) or OXOID ISO-SENSITEST broth (Staphylococci) was used.
(§2) *Inoculum: 10^5 cfu/ml.

Staph. aureus Tour = experiment: In vitro MIC, microdilution method in broth; assay type: cell-based; conditions: OXOID ISO-SENSITEST broth, inoculum 10^5 cfu/ml, 18-24 hours at 37° C.
Description: as §1, §2

[2] = system: Staph. epidermidis ATCC 12228; experiment: In vitro MIC, microdilution method in broth; assay type: cell-based; conditions: inoculum 10^5 cfu/ml, 18-24 hours at 37° C.
Description: as §1, §2

Strep. pneumoniae UC 41 = experiment: In vitro MIC, microdilution method in broth; assay type: cell-based; conditions: DIFCO TODDO-HEWITT broth, inoculum 10^5 cfu/ml, 18-24 hours at 37° C.
Description: as §1, §2

Strep. pyogenes C 203 = experiment: In vitro MIC, microdilution method in broth; assay type: cell-based; conditions: DIFCO TODDO-HEWITT broth, inoculum 10^5 cfu/ml, 18-24 hours at 37° C.
Description: as §1, §2

Staph. aureus (TLS) = experiment: In vitro MIC, microdilution method in broth; assay type: cell-based; conditions: Staph. aureus (TLS = Low Sensitive to Teicoplanin); inoculum 10^5 cfu/ml; 18-24 hours at 37° C.
Description: as §1
(§3) TLS = Low Sensitive to Teicoplanin
as §2

Staph. epidermidis (TLS) = experiment: In vitro MIC, microdilution method in broth; assay type: cell-based; conditions: Staph. epidermidis (TLS = Low Sensitive to Teicoplanin); inoculum 10^5 cfu/ml; 18-24 hours at 37° C.
Description: as §1, §3, §2

[3] = system: Staph. haemolyticus clin. isolate (TLS); experiment: In vitro MIC, microdilution method in broth; assay type: cell-based; conditions: inoculum 10^5 cfu/ml, 18-24 hours at 37° C.
Description: as §1, §3, §2

[4] = system: two strains of S. aureus and S. epidermidis low sensitive to teicoplanin; experiment: Activity relative to teicoplanin (from MIC); assay type: cell-based
Description: as §1

[5] = N. Pant et al and P. M. Booth et al; cited from earlier work

Substance | MIC [1] [µg/mL] | MIC (Staph. aureus Tour) [µg/mL] | MIC [2] [µg/mL] | MIC (Strep. pneumoniae UC 41) [µg/mL] | MIC (Strep. pyogenes C 203) [µg/mL] | MIC (Staph. aureus (TLS)) [µg/mL] | MIC (Staph. epidermidis (TLS)) [µg/mL] | MIC [3] [µg/mL] | Activity compared with teicoplanin [4] | Biological activity [5]
teicoplanin | 0.125 | 0.5 | 0.5 | 0.063 | 0.063 | 8 | 16 | 16 | – | –
aglucoteicoplanin hexapeptide [Example 1] | 8 | 2 | 0.5 | 4 | 8 | 2 | 1 | 16 | four to sixteen times more active | –
Aglucovancomycin Hexapeptide | – | – | – | – | – | – | – | – | – | inactivity
vancomycin hexapeptide | – | – | – | – | – | – | – | – | – | inactivity
